Patent US11780805B2, “Carbamoyl phenylalaninol compounds and uses thereof” (AXSOME MALTA LTD., priority 2016, dated 2023)

Legend:
[1] = target: T1, alpha2A adrenergic receptor (Alpha2A) (Homo sapiens, UniProt P08913); assay: Competitive radioligand binding assay, Alpha2A; conditions: compound at 10 μM; radioligand yohimbine; cell membrane fractions; read-out: % Inhibition of Binding at Each Transporter or Receptor Target, Alpha2A
T1 sequence (P08913 1-465): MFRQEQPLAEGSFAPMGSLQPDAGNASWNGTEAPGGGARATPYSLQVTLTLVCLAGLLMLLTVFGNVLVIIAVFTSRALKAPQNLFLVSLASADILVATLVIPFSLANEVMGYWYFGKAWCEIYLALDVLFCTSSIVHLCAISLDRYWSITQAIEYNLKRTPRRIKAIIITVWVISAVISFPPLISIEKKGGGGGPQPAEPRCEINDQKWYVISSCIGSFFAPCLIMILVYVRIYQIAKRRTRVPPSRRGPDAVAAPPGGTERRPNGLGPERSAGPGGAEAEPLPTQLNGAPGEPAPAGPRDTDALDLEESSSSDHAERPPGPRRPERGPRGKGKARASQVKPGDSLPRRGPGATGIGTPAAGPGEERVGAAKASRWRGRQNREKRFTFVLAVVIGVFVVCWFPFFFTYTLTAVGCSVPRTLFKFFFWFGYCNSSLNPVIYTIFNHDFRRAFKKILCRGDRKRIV
Description: (§1) Compound 2 was tested for pharmacological activity in comparison to APC. Eight binding assays were carried out to provide a binding profile for each compound, including binding to dopamine transporter (DAT), norepinephrine transporter (NET), serotonin (5-HT) transporter (SERT), alpha2A adrenergic receptor (Alpha2A), alpha2C adrenergic receptor (Alpha2C), D2S dopamine receptor (D2S), D2L, dopamine receptor (D2L), and vesicular monoamine transporter (VMAT2). Competitive binding assays using a radiolabeled ligand were carried out with each compound at 10 μM. The radioligand for each target was as follows: DAT—BTCP, NET—protriptyline, SERT—imipramine Alpha2A—yohimbine, Alpha2C—yohimbine, D2S—7-OH-DPAT, D2L—butaclamol, VMAT2—tetrabenazine. The source of the receptors and transporters were prepared cell membrane fractions.

[2] = target: T2, alpha2C adrenergic receptor (Alpha2C) (Homo sapiens, UniProt P18825); assay: Competitive radioligand binding assay, Alpha2C; conditions: compound at 10 μM; radioligand yohimbine; cell membrane fractions; read-out: % Inhibition of Binding at Each Transporter or Receptor Target, Alpha2C
T2 sequence (P18825 1-462): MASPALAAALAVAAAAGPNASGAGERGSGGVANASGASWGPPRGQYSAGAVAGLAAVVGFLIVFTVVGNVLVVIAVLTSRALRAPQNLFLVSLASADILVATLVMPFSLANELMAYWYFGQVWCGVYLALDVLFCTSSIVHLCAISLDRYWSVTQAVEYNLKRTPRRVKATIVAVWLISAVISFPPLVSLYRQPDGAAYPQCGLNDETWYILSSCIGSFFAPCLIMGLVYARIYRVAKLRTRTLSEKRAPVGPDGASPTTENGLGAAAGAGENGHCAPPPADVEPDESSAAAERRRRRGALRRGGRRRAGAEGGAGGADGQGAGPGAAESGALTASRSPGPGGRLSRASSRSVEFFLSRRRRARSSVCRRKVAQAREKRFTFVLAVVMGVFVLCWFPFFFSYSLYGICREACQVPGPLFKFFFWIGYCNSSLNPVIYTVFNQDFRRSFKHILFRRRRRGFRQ
Description: as §1

[3] = target: D2S dopamine receptor (D2S) (Homo sapiens, UniProt P14416); assay: Competitive radioligand binding assay, D2S; conditions: compound at 10 μM; radioligand 7-OH-DPAT; cell membrane fractions; read-out: % Inhibition of Binding at Each Transporter or Receptor Target, D2S
Description: as §1

[4] = target: D2L, dopamine receptor (D2L) (Homo sapiens, UniProt P14416); assay: Competitive radioligand binding assay, D2L; conditions: compound at 10 μM; radioligand butaclamol; cell membrane fractions; read-out: % Inhibition of Binding at Each Transporter or Receptor Target, D2L
Description: as §1

[5] = target: norepinephrine transporter (NET) (Homo sapiens, UniProt P23975); assay: Competitive radioligand binding assay, NET; conditions: compound at 10 μM; radioligand protriptyline; cell membrane fractions; read-out: % Inhibition of Binding at Each Transporter or Receptor Target, NET
Description: as §1

[6] = target: dopamine transporter (DAT) (Homo sapiens, UniProt Q01959); assay: Competitive radioligand binding assay, DAT; conditions: compound at 10 μM; radioligand BTCP; cell membrane fractions; read-out: % Inhibition of Binding at Each Transporter or Receptor Target, DAT
Description: as §1

[7] = target: serotonin (5-HT) transporter (SERT) (Homo sapiens, UniProt P31645); assay: Competitive radioligand binding assay, SERT; conditions: compound at 10 μM; radioligand imipramine; cell membrane fractions; read-out: % Inhibition of Binding at Each Transporter or Receptor Target, SERT
Description: as §1

[8] = target: vesicular monoamine transporter (VMAT2) (Homo sapiens, UniProt Q05940); assay: Competitive radioligand binding assay, VMAT2; conditions: compound at 10 μM; radioligand tetrabenazine; cell membrane fractions; read-out: % Inhibition of Binding at Each Transporter or Receptor Target, VMAT2
Description: as §1

norepinephrine transporter (NET), sequence (P23975 whole entry, species assumed): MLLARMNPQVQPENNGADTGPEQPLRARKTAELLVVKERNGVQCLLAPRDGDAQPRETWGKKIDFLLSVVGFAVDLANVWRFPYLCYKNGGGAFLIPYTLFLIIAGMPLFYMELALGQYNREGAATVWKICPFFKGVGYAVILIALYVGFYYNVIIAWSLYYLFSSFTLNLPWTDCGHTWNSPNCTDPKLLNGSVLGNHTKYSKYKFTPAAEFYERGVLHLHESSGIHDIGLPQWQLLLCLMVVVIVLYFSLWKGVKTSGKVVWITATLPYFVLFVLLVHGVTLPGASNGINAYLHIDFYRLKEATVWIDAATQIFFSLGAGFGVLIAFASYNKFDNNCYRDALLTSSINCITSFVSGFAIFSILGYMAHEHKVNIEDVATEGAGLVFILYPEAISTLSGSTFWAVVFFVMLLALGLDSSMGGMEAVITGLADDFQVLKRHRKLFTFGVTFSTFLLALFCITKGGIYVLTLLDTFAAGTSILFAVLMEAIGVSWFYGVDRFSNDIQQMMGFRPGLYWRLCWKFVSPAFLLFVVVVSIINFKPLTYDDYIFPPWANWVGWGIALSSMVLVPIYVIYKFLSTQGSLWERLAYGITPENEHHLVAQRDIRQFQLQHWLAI
serotonin (5-HT) transporter (SERT), sequence (P31645 whole entry, species assumed): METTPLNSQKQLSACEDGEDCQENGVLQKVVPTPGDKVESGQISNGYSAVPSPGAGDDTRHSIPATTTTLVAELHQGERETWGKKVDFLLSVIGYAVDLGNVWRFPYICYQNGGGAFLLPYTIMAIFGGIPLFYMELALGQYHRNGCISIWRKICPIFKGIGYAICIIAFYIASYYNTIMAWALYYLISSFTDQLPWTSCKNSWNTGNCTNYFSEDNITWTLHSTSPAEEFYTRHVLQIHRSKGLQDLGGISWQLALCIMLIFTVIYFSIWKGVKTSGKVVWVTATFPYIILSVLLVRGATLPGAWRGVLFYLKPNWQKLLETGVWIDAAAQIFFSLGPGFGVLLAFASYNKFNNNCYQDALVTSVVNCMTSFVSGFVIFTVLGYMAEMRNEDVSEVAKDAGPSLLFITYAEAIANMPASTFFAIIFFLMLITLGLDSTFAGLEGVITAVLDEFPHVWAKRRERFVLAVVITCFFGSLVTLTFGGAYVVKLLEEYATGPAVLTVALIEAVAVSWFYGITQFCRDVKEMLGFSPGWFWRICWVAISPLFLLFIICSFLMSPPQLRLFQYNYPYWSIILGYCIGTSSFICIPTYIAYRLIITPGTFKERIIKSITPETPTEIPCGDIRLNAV
dopamine transporter (DAT), sequence (Q01959 whole entry, species assumed): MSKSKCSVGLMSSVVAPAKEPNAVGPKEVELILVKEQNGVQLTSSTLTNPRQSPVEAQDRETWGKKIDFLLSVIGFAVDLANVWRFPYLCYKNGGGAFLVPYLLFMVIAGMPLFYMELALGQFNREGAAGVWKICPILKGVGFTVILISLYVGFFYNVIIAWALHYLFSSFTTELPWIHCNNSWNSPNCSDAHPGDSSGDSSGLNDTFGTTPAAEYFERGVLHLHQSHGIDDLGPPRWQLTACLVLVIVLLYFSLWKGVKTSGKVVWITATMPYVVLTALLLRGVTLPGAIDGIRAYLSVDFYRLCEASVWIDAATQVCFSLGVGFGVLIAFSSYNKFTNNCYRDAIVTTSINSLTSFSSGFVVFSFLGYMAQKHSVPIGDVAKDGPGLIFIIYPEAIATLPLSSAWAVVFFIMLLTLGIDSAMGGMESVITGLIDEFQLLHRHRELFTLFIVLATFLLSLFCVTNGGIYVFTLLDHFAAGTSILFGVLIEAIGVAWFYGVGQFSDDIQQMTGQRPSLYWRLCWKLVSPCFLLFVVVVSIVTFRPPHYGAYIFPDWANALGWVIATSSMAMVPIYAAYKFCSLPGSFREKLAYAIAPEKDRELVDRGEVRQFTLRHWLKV
vesicular monoamine transporter (VMAT2), sequence (Q05940 whole entry, species assumed): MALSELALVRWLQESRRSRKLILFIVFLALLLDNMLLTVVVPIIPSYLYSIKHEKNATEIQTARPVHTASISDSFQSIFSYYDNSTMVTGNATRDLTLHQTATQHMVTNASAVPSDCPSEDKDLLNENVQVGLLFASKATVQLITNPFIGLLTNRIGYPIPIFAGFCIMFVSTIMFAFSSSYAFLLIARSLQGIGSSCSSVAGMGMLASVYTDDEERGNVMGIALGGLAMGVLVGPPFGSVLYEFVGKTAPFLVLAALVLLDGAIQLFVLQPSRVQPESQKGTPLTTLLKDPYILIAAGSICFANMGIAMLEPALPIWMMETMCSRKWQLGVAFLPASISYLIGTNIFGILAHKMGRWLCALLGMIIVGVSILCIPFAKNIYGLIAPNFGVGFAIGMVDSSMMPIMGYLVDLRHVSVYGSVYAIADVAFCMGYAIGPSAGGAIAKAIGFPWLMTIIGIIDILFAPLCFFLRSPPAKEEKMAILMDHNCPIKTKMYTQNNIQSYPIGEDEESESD
D2L, dopamine receptor (D2L), sequence (P14416 whole entry): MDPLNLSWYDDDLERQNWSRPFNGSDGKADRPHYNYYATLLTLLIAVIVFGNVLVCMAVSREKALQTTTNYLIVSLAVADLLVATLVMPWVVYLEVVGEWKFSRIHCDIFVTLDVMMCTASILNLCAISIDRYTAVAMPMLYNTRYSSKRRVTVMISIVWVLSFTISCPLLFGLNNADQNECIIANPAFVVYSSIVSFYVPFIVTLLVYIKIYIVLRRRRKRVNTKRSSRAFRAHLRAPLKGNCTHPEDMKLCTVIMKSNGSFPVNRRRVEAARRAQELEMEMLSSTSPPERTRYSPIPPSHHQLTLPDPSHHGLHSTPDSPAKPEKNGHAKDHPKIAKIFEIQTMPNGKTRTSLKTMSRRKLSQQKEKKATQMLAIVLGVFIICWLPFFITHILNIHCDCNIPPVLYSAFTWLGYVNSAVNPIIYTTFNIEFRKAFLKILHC
D2S dopamine receptor (D2S), sequence (P14416 1-414 isoform P14416-2): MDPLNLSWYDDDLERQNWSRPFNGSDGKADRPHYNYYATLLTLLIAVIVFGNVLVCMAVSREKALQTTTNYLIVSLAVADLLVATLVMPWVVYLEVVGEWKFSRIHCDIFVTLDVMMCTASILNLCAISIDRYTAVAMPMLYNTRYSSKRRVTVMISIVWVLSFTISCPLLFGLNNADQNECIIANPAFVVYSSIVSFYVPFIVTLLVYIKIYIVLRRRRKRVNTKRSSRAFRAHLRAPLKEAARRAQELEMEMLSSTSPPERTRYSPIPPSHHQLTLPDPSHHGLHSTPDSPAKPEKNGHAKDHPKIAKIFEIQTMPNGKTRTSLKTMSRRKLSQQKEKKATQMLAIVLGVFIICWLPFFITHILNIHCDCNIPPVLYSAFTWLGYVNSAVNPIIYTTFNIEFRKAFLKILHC

## NC(=O)OC[C@H](N)Cc1ccccc1 [APC, (R)-2-amino-3-phenylpropyl carbamate]
[1]
  inhibition at 10 µM: 16.5%
[2]
  inhibition at 10 µM: 7.4%
[3]
  inhibition at 10 µM: 18.7%
[4]
  inhibition at 10 µM: -3.4%
[5]
  inhibition at 10 µM: 6.2%
[6]
  inhibition at 10 µM: 81.4%
[7]
  inhibition at 10 µM: 4%
[8]
  inhibition at 10 µM: 12%

## NC(=O)NC(=O)OC[C@H](N)Cc1ccccc1 [Compound 2, D-phenylalaninol allophanate]
[1]
  inhibition at 10 µM: 28%
[2]
  inhibition at 10 µM: 52.1%
[3]
  inhibition at 10 µM: 11.8%
[4]
  inhibition at 10 µM: -5.5%
[5]
  inhibition at 10 µM: 2.7%
[6]
  inhibition at 10 µM: 80.6%
[7]
  inhibition at 10 µM: 3.4%
[8]
  inhibition at 10 µM: -1%
